Entries after “also recorded” stand apart in the source; their conditions may differ. Marks after values point to notes of the source that are not given here.
Columns and labels:
[1] = system: diffuse large B-cell lymphoma SU-DHL-10 cell; test: MTT anti-proliferative assay, SU-DHL-10; format: cell-based, human; conditions: for IC50: Homo sapiens, SU-DHL10, MTT, 48 h, read-out: IC50 SU-DHL-10
Method in brief: (§1)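 Cell lines plated in 96-well plates and exposed to compounds; anti-proliferative activity determined by MTT read-out as inhibition of net cell growth.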

[2] = system: MGC-803 cancer cells; set-up: method as in PMID 29516624, PMID 30244610; conditions: Fig. 1; cited from earlier work
[3] = system: L-02 normal cells; set-up: method as in PMID 27887843, PMID 29516624, PMID 30244610; conditions: Fig. 1; cited from earlier work
[4] = system: L-02 normal liver cell; test: MTT assay, L-02 normal cells; format: cell-based, human; conditions: Homo sapiens, 48 h
Method in brief: as §1

[5] = system: HCT116 colectal cancer cell; test: MTT anti-proliferative assay, HCT116; format: cell-based, human; conditions: for IC50: Homo sapiens, HCT-116, MTT, 48 h
Method in brief: as §1

[6] = system: Raji B lymphoblastoid cell; test: MTT anti-proliferative assay, Raji; format: cell-based, human; conditions: for IC50: Homo sapiens, Raji, MTT, 48 h, read-out: IC50 Raji
Method in brief: as §1

[7] = system: BEL-7402 liver cancer cell; test: MTT anti-proliferative assay, BEL-7402; format: cell-based, human; conditions: for IC50: Homo sapiens, Bel-7402, MTT, 48 h
Method in brief: as §1

[8] = system: MGC-803 late stage differentiation gastric cancer cell; test: MTT anti-proliferative assay, MGC-803; format: cell-based, human; conditions: for IC50: Homo sapiens, MGC-803, MTT, 48 h
Method in brief: as §1

[9] = system: MCF-10A normal breast cell; test: MTT assay, MCF-10A normal cells; format: cell-based, human; conditions: Homo sapiens, MCF-10A, 48 h
Method in brief: as §1

[10] = system: MCF-7 breast cancer cell; test: MTT anti-proliferative assay, MCF-7; format: cell-based, human; conditions: for IC50: Homo sapiens, MCF7, MTT, 48 h
Method in brief: as §1

[11] = system: HeLa cervical cancer cell; test: MTT anti-proliferative assay, HeLa; format: cell-based, human; conditions: for IC50: Homo sapiens, HeLa, MTT, 48 h
Method in brief: as §1

[12] = system: SGC-7901 early differentiation gastric cancer cell; test: MTT anti-proliferative assay, SGC-7901; format: cell-based, human; conditions: for IC50: Homo sapiens, SGC-7901, MTT, 48 h
Method in brief: as §1

[13] = system: A549 lung cancer cell; test: MTT anti-proliferative assay, A549; format: cell-based, human; conditions: for IC50: Homo sapiens, A549, MTT, 48 h
Method in brief: as §1

[14] = system: AGS gastric cancer cell; test: MTT anti-proliferative assay, AGS; format: cell-based, human; conditions: for IC50: Homo sapiens, MTT, 48 h
Method in brief: as §1

[15] = system: HepG2 hepatoma cell; test: MTT anti-proliferative assay, HepG2; format: cell-based, human; conditions: for IC50: Homo sapiens, HepG2, MTT, 48 h, read-out: IC50 HepG-2
Method in brief: as §1

[16] = system: HeLa cancer cells; set-up: method as in PMID 27887843; conditions: Fig. 1; cited from earlier work
[17] = target: T1, Human β-tubulin (TUBB) (Homo sapiens, UniProt P07437+P68363); test: Tubulin polymerization inhibition, ELISA kit, HCT-116 cells; conditions: HCT-116, read-out: Tubulin % inhibition
T1 sequence (P07437 whole entry): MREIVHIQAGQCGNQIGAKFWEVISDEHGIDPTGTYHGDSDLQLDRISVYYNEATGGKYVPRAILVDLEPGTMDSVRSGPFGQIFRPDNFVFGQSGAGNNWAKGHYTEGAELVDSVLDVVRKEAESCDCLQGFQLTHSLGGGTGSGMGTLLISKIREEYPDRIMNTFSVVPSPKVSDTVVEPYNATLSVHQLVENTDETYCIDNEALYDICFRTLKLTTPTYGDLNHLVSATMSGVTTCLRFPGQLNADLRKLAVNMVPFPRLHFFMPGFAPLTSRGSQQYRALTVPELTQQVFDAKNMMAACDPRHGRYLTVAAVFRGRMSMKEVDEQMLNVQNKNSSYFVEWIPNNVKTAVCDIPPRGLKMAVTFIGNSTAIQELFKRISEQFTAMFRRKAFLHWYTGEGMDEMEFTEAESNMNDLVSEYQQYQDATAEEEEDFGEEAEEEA
T1 sequence (P68363 whole entry): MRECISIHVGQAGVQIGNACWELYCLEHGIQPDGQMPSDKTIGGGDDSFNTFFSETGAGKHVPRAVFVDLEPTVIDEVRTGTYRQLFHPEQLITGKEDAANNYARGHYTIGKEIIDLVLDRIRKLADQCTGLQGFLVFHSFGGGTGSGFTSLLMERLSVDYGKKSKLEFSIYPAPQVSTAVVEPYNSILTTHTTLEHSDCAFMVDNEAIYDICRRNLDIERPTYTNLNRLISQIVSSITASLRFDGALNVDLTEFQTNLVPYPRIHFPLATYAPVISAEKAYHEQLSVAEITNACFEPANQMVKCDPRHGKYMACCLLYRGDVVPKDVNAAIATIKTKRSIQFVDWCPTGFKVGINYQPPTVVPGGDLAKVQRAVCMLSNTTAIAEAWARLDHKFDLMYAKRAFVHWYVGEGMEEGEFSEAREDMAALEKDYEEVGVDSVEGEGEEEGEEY

[18] = target: T1, Human β-tubulin (TUBB); test: Tubulin polymerization inhibition, ELISA kit, BEL-7402 cells; conditions: Bel-7402, read-out: Tubulin % inhibition
[19] = system: L-02 cells; test: Apoptosis by flow cytometry (annexin V-FITC/PI), L-02; format: cell-based, human; conditions: 12 h
Experimental: (§2) pH of the solution was adjusted to 2 with HCl solution (1 M), and the precipitate was subsequently collected by suction filtra- […]
(§3) in DMF (40 mL) at 0°C. After 2 h reaction, the mixture was poured into 300 mL ice water and mixed completely. Then adjust […]
(§4) mL) at 0°C, then after 15 min stirring, benzyl chloride (33 mmol) was added. The reaction mixture was moved to RT and al-lowed to continue, after which it was deemed essentially complete by TLC. Then the solution was removed and the mixture […]
(§5) 1.6. Cell lines and cell culture
(§6) MTT was purchased from Sigma-Aldrich Co. (St. Louis, MO, USA). The PI and Annexin V-FITC apoptosis detection kit were purchased from Invitrogen (Eugene, OR, USA). All human cell lines were used in this study. […]
(§7) the anti-proliferative activities were determined by MTT assay. […]
(§8) respectively. […] After 12 h, the cell detached, fixed, and analyzed the cell cycle by flow cytometry using a FACS Calibur flow cytometer with Cell Quest software (Becton-Dickinson, Franklin Lakes, NJ). […]
(§9) Apoptosis was detected using an apoptosis detecti5 on kit. […]
(§10) Vehicle group was treated with 0.1% DMSO. Following 12 h of incubation, cells were analyzed for apoptosis as previously described method, using a FACS Calibur flow cytometer with Cell Quest software (Becton-Dickinson, Franklin Lakes, NJ). […]
(§11) Quantitative cell migration was performed using 24-well Boyden chambers (Corning, NY, USA) as described. […]

[20] = system: HCT116 colon cancer xenograft; test: In vivo antitumor activity, colon cancer xenograft; set-up: species or system Nu/Nu nude mice
[21] = system: HCT116 cells; test: Apoptosis by flow cytometry (annexin V-FITC/PI), HCT116; format: cell-based, human; conditions: 0.1 μM, 12 h
Experimental: as §2, §3, §4, §5, §6, §7, §8, §9, §10, §11

[22] = system: L-02 cells; test: Transwell cell migration assay, L-02; format: cell-based, human; conditions: 24 h
Experimental: Aggressive tumors have a strong ability to proliferate and migrate, and in many cases, cell mobility affects cell proliferation. […]
as §2, §3, §4, §5
MTT was purchased from Sigma-Aldrich Co. (St. Louis, MO, USA). […]
as §7, §8, §9, §10, §11

| IC50 [1] [µM] | IC50 [5] [µM] | IC50 [6] [µM] | IC50 [7] [µM] | IC50 [8] [µM] | IC50 [10] [µM] | IC50 [11] [µM] | IC50 [12] [µM] | IC50 [13] [µM] | IC50 [14] [µM] | IC50 [15] [µM] | Structure (SMILES) | IC50 [2] [µM] | IC50 [3] [µM] | IC50 [4] [µM] | SI (selectivity index), IC50 (L-02)/IC50 (HCT-116) [5] | SI (selectivity index), IC50 (L-02)/IC50 (Raji) [6] | IC50 [9] [µM] | SI (selectivity index), IC50 (MCF-10A)/IC50 (MCF-7) [10] | IC50 [16] [µM] | also measured |
| --- | --- | --- | --- | --- | --- | --- | --- | --- | --- | --- | --- | --- | --- | --- | --- | --- | --- | --- | --- | --- |
| – | – | – | – | – | – | – | – | – | – | – | COc1cc(OC)cc(/C(C#N)=C/c2ccc(Br)cc2)c1 [Compound 2, (Z)-3-(4-bromophenyl)-2-(3,5-dimethoxyphenyl)acrylonitrile] | – | > 100 | – | – | – | – | – | 4.2 | – |
| > 100 | 16.7 ± 3.6 | > 100 | 42.5 ± 5.4 | > 100 | 72.4 ± 9.9 | > 100 | > 100 | > 100 | > 100 | > 100 | Oc1ccc(/C=C/c2cc(O)cc(O)c2)cc1 [Resveratrol, resveratrol, reference compound] | – | – | 12.8 ± 0.2 | – | – | > 100 | – | 120 | – |
| 0.18 ± 0.03 | 0.03 ± 0.01 | 0.26 ± 0.02 | 0.09 ± 0.02 | 0.06 ± 0.01 | 0.08 ± 0.01 | 12.9 ± 0.4 | > 100 | 0.4 ± 0.02 | 0.02 ± 0.01 | 0.9 ± 0.03 | CC(=O)O[C@H]1C(=O)[C@@]2(C)[C@H]([C@H](OC(=O)c3ccccc3)[C@]3(O)C[C@H](OC(=O)[C@H](O)[C@@H](NC(=O)c4ccccc4)c4ccccc4)C(C)=C1C3(C)C)[C@]1(OC(C)=O)CO[C@@H]1C[C@@H]2O [Taxol, Paclitaxel, reference compound] | 0.06 ± 0.01 | > 100 | > 100 | > 3333^c | > 384^c | 0.18 ± 0.02 | > 2.2^d | 13 | SI (selectivity index), IC50 (L-02)/IC50 (SU-DHL-10) [1]: > 555^c; inhibition at 0.01 µM [17]: 19.1 ± 6.27%; inhibition at 0.1 µM [17]: 36.5 ± 6.07%; inhibition at 1 µM [17]: 46 ± 4.89%; SI (selectivity index), IC50 (L-02)/IC50 (BEL-7402) [7]: > 1111^c; SI (selectivity index), IC50 (L-02)/IC50 (HeLa) [11]: > 7.7^c; inhibition at 0.01 µM [18]: 15 ± 2.65%; inhibition at 0.1 µM [18]: 20.1 ± 5.34%; inhibition at 1 µM [18]: 29.6 ± 4.88%; apoptosis in normal L-02 cells [19]: almost no apoptosis; SI (selectivity index), IC50 (L-02)/IC50 (A549) [13]: > 227^c; mouse body weight ([20]; 25 mg/kg/day, xenograft mice): decreased significantly; average volume and weight of the tumor versus control group ([20]; 1g2a 12.5, 25, 50 mg/kg, taxol 25 mg/kg, from day 10): significantly lower; also recorded: inhibited the growth of tumors; SI (selectivity index), IC50 (L-02)/IC50 (AGS) [14]: > 5000^c; percentage of total apoptotic (early and late stage) HCT116 cells [21]: 26.8%; migration of normal L-02 cells [22]: almost no migration; SI (selectivity index), IC50 (L-02)/IC50 (HepG-2) [15]: > 106^c |

| Structure (SMILES) | IC50 [1] [µM] | IC50 [5] [µM] | IC50 [6] [µM] | IC50 [7] [µM] | IC50 [8] [µM] | IC50 [10] [µM] | IC50 [11] [µM] | IC50 [12] [µM] | IC50 [13] [µM] | IC50 [14] [µM] | IC50 [15] [µM] | IC50 [2] [µM] | IC50 [3] [µM] | IC50 [4] [µM] | SI (selectivity index), IC50 (L-02)/IC50 (HCT-116) [5] | SI (selectivity index), IC50 (L-02)/IC50 (Raji) [6] | IC50 [9] [µM] | SI (selectivity index), IC50 (MCF-10A)/IC50 (MCF-7) [10] | IC50 [16] [µM] | also measured |
| --- | --- | --- | --- | --- | --- | --- | --- | --- | --- | --- | --- | --- | --- | --- | --- | --- | --- | --- | --- | --- |
| COc1ccc(/C=C\c2cc(OC)c(OC)c(OC)c2)cc1O [CA-4, combretastatin A-4, reference compound] | 1.1 ± 0.1 | 0.16 ± 0.001 | 0.18 ± 0.001 | 2 ± 0.03 | 0.06 ± 0.02 | 0.2 ± 0.1 | > 100 | 0.3 ± 0.001 | > 100 | 3.4 ± 0.01 | > 100 | 0.06 ± 0.01 | 1.1 ± 0.03 | 1.1 ± 0.03 | > 6.8^c | > 5.8^c | 3.2 ± 1.2 | > 14.6^d | – | SI (selectivity index), IC50 (L-02)/IC50 (MGC-803) [8]: > 18.3^c; SI (selectivity index), IC50 (L-02)/IC50 (SGC-7901) [12]: > 3.6^c |

From PMC11071649, “Synthesis and Selective Anticancer Activity Evaluation of 2-phenylacrylonitrile Derivatives as Tubulin Inhibitors” (Current Medicinal Chemistry, 2024)
